Assay results published in article PMC9154192 (PLoS Biology, 2022).
Values after ≈ are worked out from the molar mass of the structure shown.

Columns and labels:
M. tuberculosis H37Rv = assay: microbe, parasite or virus in culture; format: cell-based, Mycobacterium tuberculosis; conditions: for MIC: Mycobacterium tuberculosis, H37RV, read-out: MIC
[1] = system: clinically isolated MDR, XDR, and TDR M. tuberculosis strains; assay: microbe, parasite or virus in culture; format: cell-based; conditions: Mycobacterium tuberculosis
M. abscessus = assay: microbe, parasite or virus in culture; format: cell-based, Mycobacterium abscessus; conditions: Mycobacteroides abscessus
M. arupense = assay: microbe, parasite or virus in culture; format: cell-based, Mycobacterium arupense; conditions: Mycolicibacter arupensis
M. bolletii = assay: microbe, parasite or virus in culture; format: cell-based, Mycobacterium bolletii; conditions: Mycobacteroides abscessus
M. chitae = assay: microbe, parasite or virus in culture; format: cell-based, Mycobacterium chitae; conditions: Mycolicibacterium chitae
M. fortuitum = assay: microbe, parasite or virus in culture; format: cell-based, Mycobacterium fortuitum; conditions: Mycolicibacterium fortuitum
M. gilvum = assay: microbe, parasite or virus in culture; format: cell-based, Mycobacterium gilvum; conditions: Mycolicibacterium gilvum
M. goodie = assay: microbe, parasite or virus in culture; format: cell-based; conditions: Mycobacterium
M. intracellulare = assay: microbe, parasite or virus in culture; format: cell-based; conditions: Mycobacterium intracellulare
M. kyorinense = assay: microbe, parasite or virus in culture; format: cell-based; conditions: Mycobacterium kyorinense
M. marinum = assay: microbe, parasite or virus in culture; format: cell-based; conditions: Mycobacterium marinum
M. marseiliense = assay: microbe, parasite or virus in culture; format: cell-based; conditions: Mycobacterium
M. massiliense = assay: microbe, parasite or virus in culture; format: cell-based, Mycobacterium massiliense; conditions: Mycobacteroides abscessus
M. peregrinum = assay: microbe, parasite or virus in culture; format: cell-based, Mycobacterium peregrinum; conditions: Mycolicibacterium peregrinum
M. phlei = assay: microbe, parasite or virus in culture; format: cell-based, Mycobacterium phlei; conditions: Mycolicibacterium phlei
M. smegmatis = assay: microbe, parasite or virus in culture; format: cell-based, Mycobacterium smegmatis; conditions: Mycolicibacterium smegmatis
M. szulgai = assay: microbe, parasite or virus in culture; format: cell-based; conditions: Mycobacterium szulgai
M. xenopi = assay: microbe, parasite or virus in culture; format: cell-based; conditions: Mycobacterium xenopi
Aspergillus fumigatus = assay: Broth dilution MIC (CLSI); format: cell-based; conditions: read-out: MIC
Description: (§1) Bacteria (Acinetobacter baumannii NCCP 14782, Citrobacter freundii NCCP 14766, Enterobacter aerogenes NCCP 14761, Escherichia coli NCCP 14762, Escherichia coli O157 NCCP 14541, Klebsiella pneumoniae NCCP 14764, Proteus mirabilis NCCP 14763, Proteus vulgaris NCCP 14765, Pseudomonas aeruginosa NCCP 14781, Salmonella Enteritidis NCCP 14771, Salmonella Paratyphi A NCCP 14759, Salmonella Typhimurium NCCP 16207, Serratia marcescens NCCP 14770, Shigella boydii NCCP 14745, Shigella dysenteriae NCCP 14746, Shigella flexneri NCCP 14744, Shigella sonnei NCCP 14773, Bacillus subtilis NCCP 11101, Corynebacterium diphtheriae NCCP 10353, Staphylococcus aureus MSSA NCCP 14780, Staphylococcus aureus MRSA NCCP 14769, Staphylococcus epidermidis NCCP 14768, Streptococcus pneumoniae NCCP 14774) and fungi (Aspergillus fumigatus NCCP 22454, Candida albicans NCCP 32557, Cryptococcus neoformans NCCP 32559, Microsporum canis NCCP 22454, Rhizopus oryzae NCCP 22458, Saccharomyces cerevisiae NCCP 32558, Trichophyton rubrum NCCP 22456) strains were obtained from the National Culture Collection for Pathogens (NCCP) (Chungbuk, Korea). The MIC of each agent was determined following the Clinical and Laboratory Standards Institute (CLSI).[40]

Bacillus subtilis = assay: Broth dilution MIC (CLSI); format: cell-based; conditions: read-out: MIC
Description: as §1

Candida albicans = assay: Broth dilution MIC (CLSI); format: cell-based; conditions: read-out: MIC
Description: as §1

Citrobacter freundii = assay: Broth dilution MIC (CLSI); format: cell-based; conditions: read-out: MIC
Description: as §1

[2] = system: Corynebacterium diphtheriae; assay: Broth dilution MIC (CLSI); format: cell-based; conditions: read-out: MIC
Description: as §1

Cryptococcus neoformans = assay: Broth dilution MIC (CLSI); format: cell-based; conditions: read-out: MIC
Description: as §1

Enterobacter aerogenes = assay: Broth dilution MIC (CLSI); format: cell-based; conditions: Klebsiella aerogenes; Enterobacter aerogenes; read-out: MIC
Description: as §1

Escherichia coli O157 = assay: Broth dilution MIC (CLSI); format: cell-based; conditions: read-out: MIC
Description: as §1

Escherichia coli = assay: Broth dilution MIC (CLSI); format: cell-based; conditions: read-out: MIC
Description: as §1

Klebsiella pneumoniae = assay: Broth dilution MIC (CLSI); format: cell-based; conditions: read-out: MIC
Description: as §1

Microsporum canis = assay: Broth dilution MIC (CLSI); format: cell-based; conditions: read-out: MIC
Description: as §1

Proteus mirabilis = assay: Broth dilution MIC (CLSI); format: cell-based; conditions: read-out: MIC
Description: as §1

Proteus vulgaris = assay: Broth dilution MIC (CLSI); format: cell-based; conditions: read-out: MIC
Description: as §1

Pseudomonas aeruginosa = assay: Broth dilution MIC (CLSI); format: cell-based; conditions: read-out: MIC
Description: as §1

Rhizopus oryzae = assay: Broth dilution MIC (CLSI); format: cell-based; conditions: Rhizopus arrhizus; Rhizopus oryzae; read-out: MIC
Description: as §1

Saccharomyces cerevisiae = assay: Broth dilution MIC (CLSI); format: cell-based; conditions: read-out: MIC
Description: as §1

Salmonella Enteritidis = assay: Broth dilution MIC (CLSI); format: cell-based; conditions: Salmonella enterica; Salmonella Enteritidis; read-out: MIC
Description: as §1

Salmonella Paratyphi A = assay: Broth dilution MIC (CLSI); format: cell-based; conditions: Salmonella enterica; Salmonella Paratyphi A; read-out: MIC
Description: as §1

Salmonella Typhimurium = assay: Broth dilution MIC (CLSI); format: cell-based; conditions: Salmonella enterica; Salmonella Typhimurium; read-out: MIC
Description: as §1

Shigella dysenteriae = assay: Broth dilution MIC (CLSI); format: cell-based; conditions: read-out: MIC
Description: as §1

[3] = system: Staphylococcus aureus, MRSA; assay: Broth dilution MIC (CLSI); format: cell-based; conditions: read-out: MIC
Description: as §1

Streptococcus pneumoniae = assay: Broth dilution MIC (CLSI); format: cell-based; conditions: read-out: MIC
Description: as §1

Trichophyton rubrum = assay: Broth dilution MIC (CLSI); format: cell-based; conditions: read-out: MIC
Description: as §1

In the case of `COC(=O)[C@@H]1CCC(=O)N1Cc1cc2ccc(OC)cc2c2cc(OC)c(OC)cc12` [PP1S, (S)-N-[(2,3,6-Trimethoxy-10-phenanthryl)methyl]-pyroglutamic acid methyl ester], the “in vitro antitubercular activities (S-form vs R-form)” value (M. tuberculosis H37Rv) is reported as “had in vitro antitubercular activities”, the MIC (M. tuberculosis H37Rv) is reported as 1.6 µg/mL (≈ 3.78 µM) and the “SI (CC50/MIC)” value (M. tuberculosis H37Rv; ratio of CC50 for L929 fibroblasts to MIC for strain H37Rv) is reported as >62.5. The MIC ([1]; TDR-1) was 3.3 µg/mL (≈ 7.79 µM), the MIC ([1]; TDR-2) was 0.8 µg/mL (≈ 1.89 µM) and the MIC ([1]; TDR-3) was 3.1 µg/mL (≈ 7.32 µM). For the same compound, the MIC (M. abscessus) was > 100 µg/mL, the MIC (M. arupense) was > 100 µg/mL and the MIC (M. bolletii) was > 100 µg/mL. For the same compound, the MIC (M. chitae) was > 100 µg/mL, the MIC (M. fortuitum) was > 100 µg/mL and the MIC (M. gilvum) was > 100 µg/mL. For the same compound, the MIC (M. goodie) was > 100 µg/mL, the MIC (M. intracellulare) was > 100 µg/mL and the MIC (M. kyorinense) was > 100 µg/mL. The MIC (M. marinum) was > 100 µg/mL, the MIC (M. marseiliense) was > 100 µg/mL and the MIC (M. massiliense) was > 100 µg/mL. For the same compound, the MIC (M. peregrinum) was > 100 µg/mL, the MIC (M. phlei) was > 100 µg/mL and the MIC (M. smegmatis) was > 100 µg/mL. For the same compound, the MIC (M. szulgai) was > 100 µg/mL, the MIC (M. xenopi) was > 100 µg/mL and the MIC (Aspergillus fumigatus) was > 100 µg/mL. For the same compound, the MIC (Bacillus subtilis) was > 100 µg/mL, the MIC (Candida albicans) was > 100 µg/mL and the MIC (Citrobacter freundii) was > 100 µg/mL. The MIC [2] was > 100 µg/mL, the MIC (Cryptococcus neoformans) was > 100 µg/mL and the MIC (Enterobacter aerogenes) was > 100 µg/mL. The MIC (Escherichia coli O157) was > 100 µg/mL, the MIC (Escherichia coli) was > 100 µg/mL and the MIC (Klebsiella pneumoniae) was > 100 µg/mL. For the same compound, the MIC (Microsporum canis) was > 100 µg/mL, the MIC (Proteus mirabilis) was > 100 µg/mL and the MIC (Proteus vulgaris) was > 100 µg/mL. For the same compound, the MIC (Pseudomonas aeruginosa) was > 100 µg/mL, the MIC (Rhizopus oryzae) was > 100 µg/mL and the MIC (Saccharomyces cerevisiae) was > 100 µg/mL. For the same compound, the MIC (Salmonella Enteritidis) was > 100 µg/mL, the MIC (Salmonella Paratyphi A) was > 100 µg/mL and the MIC (Salmonella Typhimurium) was > 100 µg/mL. For the same compound, the MIC (Shigella dysenteriae) was > 100 µg/mL, the MIC [3] was > 100 µg/mL and the MIC (Streptococcus pneumoniae) was > 100 µg/mL. The MIC (Trichophyton rubrum) was > 100 µg/mL.

For `COC(=O)[C@@H]1CCC(=O)N1Cc1cc2ccc(OCc3ccccc3)cc2c2cc(OC)c(OC)cc12` [PP3S, Methyl (S)-1-{[3-(Benzyloxy)-6,7-dimethoxy-9-phenanthryl]methyl}-5-oxopyrrolidine-2-carboxylate], the “in vitro antitubercular activities (S-form vs R-form)” value (M. tuberculosis H37Rv) was “had in vitro antitubercular activities”, the MIC (M. tuberculosis H37Rv) was 1.6 µg/mL (≈ 3.2 µM) and the MIC ([1]; TDR-1) was 0.8 µg/mL (≈ 1.6 µM). For the same compound, the MIC ([1]; TDR-2) was 1.6 µg/mL (≈ 3.2 µM), the MIC ([1]; TDR-3) was 0.8 µg/mL (≈ 1.6 µM) and the MIC (M. abscessus) was > 100 µg/mL. For the same compound, the MIC (M. arupense) was > 100 µg/mL, the MIC (M. bolletii) was > 100 µg/mL and the MIC (M. chitae) was > 100 µg/mL. The MIC (M. fortuitum) was > 100 µg/mL, the MIC (M. gilvum) was > 100 µg/mL and the MIC (M. goodie) was > 100 µg/mL. The MIC (M. intracellulare) was > 100 µg/mL, the MIC (M. kyorinense) was > 100 µg/mL and the MIC (M. marinum) was > 100 µg/mL. For the same compound, the MIC (M. marseiliense) was > 100 µg/mL, the MIC (M. massiliense) was > 100 µg/mL and the MIC (M. peregrinum) was > 100 µg/mL. The MIC (M. phlei) was > 100 µg/mL, the MIC (M. smegmatis) was > 100 µg/mL and the MIC (M. szulgai) was > 100 µg/mL. The MIC (M. xenopi) was > 100 µg/mL, the MIC (Aspergillus fumigatus) was > 100 µg/mL and the MIC (Bacillus subtilis) was > 100 µg/mL. For the same compound, the MIC (Candida albicans) was > 100 µg/mL, the MIC (Citrobacter freundii) was > 100 µg/mL and the MIC [2] was > 100 µg/mL. The MIC (Cryptococcus neoformans) was > 100 µg/mL, the MIC (Enterobacter aerogenes) was > 100 µg/mL and the MIC (Escherichia coli O157) was > 100 µg/mL. The MIC (Escherichia coli) was > 100 µg/mL, the MIC (Klebsiella pneumoniae) was > 100 µg/mL and the MIC (Microsporum canis) was > 100 µg/mL. The MIC (Proteus mirabilis) was > 100 µg/mL, the MIC (Proteus vulgaris) was > 100 µg/mL and the MIC (Pseudomonas aeruginosa) was > 100 µg/mL. The MIC (Rhizopus oryzae) was > 100 µg/mL, the MIC (Saccharomyces cerevisiae) was > 100 µg/mL and the MIC (Salmonella Enteritidis) was > 100 µg/mL. For the same compound, the MIC (Salmonella Paratyphi A) was > 100 µg/mL, the MIC (Salmonella Typhimurium) was > 100 µg/mL and the MIC (Shigella dysenteriae) was > 100 µg/mL. The MIC [3] was > 100 µg/mL, the MIC (Streptococcus pneumoniae) was > 100 µg/mL and the MIC (Trichophyton rubrum) was > 100 µg/mL.
